From ChEMBL document CHEMBL5154808, “Novel β-Hairpin Antimicrobial Peptides Containing the β-Turn Sequence of -RRRF- Having High Cell Selectivity and Low Incidence of Drug Resistance” (J Med Chem, 2022)
The source made the active and inactive calls. The rule behind the calls is not given here.

What was measured:
[1] = Acute toxicity in ip dosed Kunming mouse assessed as lethal dose; format: organism-based; settings: in vivo
Escherichia coli [2] = experiment: Synergistic antibacterial activity against meropenem-resistant Escherichia coli ATCC 25922 assessed as fractional inhibitory concentration index incubated for 18 hrs in presence of meropenem by checker board assay; format: functional
Staphylococcus aureus [3] = experiment: Synergistic antibacterial activity against kanamycin-resisitant Staphylococcus aureus ATCC 25923 assessed as fractional inhibitory concentration index incubated for 18 hrs in presence of kanamycin by checker board assay; format: functional
Staphylococcus aureus [4] = experiment: Antimicrobial activity against Staphylococcus aureus ATCC 25923 assessed as fold change in MIC incubated for 18 hrs in presence of 10% serum by CLSI protocol based broth microdilution method relative to control; format: functional
Klebsiella pneumoniae = experiment: Antimicrobial activity against Klebsiella pneumoniae ATCC 700603 assessed as reduction of bacterial growth incubated for 18 hrs by CLSI protocol based broth microdilution method; format: functional
Escherichia coli [5] = experiment: Antimicrobial activity against Escherichia coli ATCC 25922 assessed as reduction of bacterial growth at 2 times MIC incubated for 18 hrs in presence of chymotrypsin by CLSI protocol based broth microdilution method; format: functional, organism-based
Staphylococcus aureus [6] = experiment: Antimicrobial activity against Staphylococcus aureus ATCC 25923 assessed as breakage of cell membrane measured after 2 hrs by SEM analysis; format: functional, organism-based
Cell membrane [7] = experiment: Induction of cytoplasmic membrane depolarization in Pseudomonas aeruginosa ATCC 27853 assessed as increase in fluorescence intensity at 1 to 4 times MIC measured after 1 min by DiSC3-5 dye based fluorescence method; format: subcellular
Escherichia coli [8] = experiment: Antimicrobial activity against Escherichia coli ATCC 25922 assessed as cell membrane breakage measured after 30 mins by SEM analysis; format: functional, organism-based
Escherichia coli [9] = experiment: Antimicrobial activity against kanamycin-resistant Escherichia coli ATCC 25922; format: functional
Escherichia coli [10] = experiment: Antimicrobial activity against Escherichia coli ATCC 25922 assessed as fold change in MIC incubated for 18 hrs in presence of 10% serum by CLSI protocol based broth microdilution method relative to control; format: functional
Pseudomonas aeruginosa = experiment: Antimicrobial activity against Pseudomonas aeruginosa ATCC 27853 assessed as reduction of bacterial growth incubated for 18 hrs by CLSI protocol based broth microdilution method; format: functional
Bacillus subtilis = experiment: Antimicrobial activity against Bacillus subtilis ATCC 23857 assessed as reduction of bacterial growth incubated for 18 hrs by CLSI protocol based broth microdilution method; format: functional
Escherichia coli [11] = experiment: Antimicrobial activity against Escherichia coli ATCC 25922 assessed as adherence to cell membrane measured after 30 mins by SEM analysis; format: functional, organism-based
[12] = Stability in mouse serum assessed as drug degradation by measuring retention time at 10 mM measured upto 360 mins by RP-HPLC analysis; format: ADME, cell-free; settings: 6 h, 10000 µM
[13] = Stability in mouse serum assessed as half life at 10 mM measured upto 360 mins by RP-HPLC analysis; format: ADME, cell-free
Staphylococcus aureus [14] = experiment: Bactericidal activity against Staphylococcus aureus ATCC 25923 assessed as time required to kill bacteria at 2 times MIC by time-killing assay; format: functional
Staphylococcus aureus [15] = experiment: Antibacterial activity against Staphylococcus aureus ATCC 25923 infected BALB/c mouse assessed as reduction in alveolar constriction at 5 to 10 mg/kg, ip measured after 24 hrs by hematoxylin and eosin staining based assay; format: functional, organism-based; settings: dose 5-10 mg/kg
Cell membrane [16] = experiment: Induction of cytoplasmic membrane depolarization in […] assessed as increase in fluorescence intensity at 1 to 4 times MIC measured after 1 min by DiSC3-5 dye based fluorescence method; format: subcellular
Staphylococcus aureus [17] = experiment: Antibacterial activity against Staphylococcus aureus ATCC 25923 infected BALB/c mouse assessed as reduction in hepatic inflammatory cell infiltration at 5 to 10 mg/kg, ip measured after 24 hrs by hematoxylin and eosin staining based assay; format: functional, organism-based; settings: dose 5-10 mg/kg
Escherichia coli [18] = experiment: Synergistic antibacterial activity against Escherichia coli ATCC 25922 assessed as fractional inhibitory concentration index incubated for 18 hrs in presence of rifampicin by checker board assay; format: functional
Staphylococcus aureus [19] = experiment: Antimicrobial activity against Staphylococcus aureus ATCC 25923 assessed as disruption of biofilm formation measured after 2 hrs by SEM analysis; format: functional, organism-based
Lipopolysaccharide (LPS) = experiment: Binding affinity to LPS (unknown origin) assessed as reduction in bactericidal activity against Escherichia coli ATCC 25922 at 2 times MIC incubated for 2 hrs in presence of 32 ug/ml of LPS by competitive binding assay
Staphylococcus aureus [20] = experiment: Antimicrobial activity against rifampicin-resistant Staphylococcus aureus ATCC 25923; format: functional
[21] = Cytotoxicity against human HK-2 cells assessed as reduction in cell viability incubated for 1 hr by resazurin based microplate reader method; format: toxicity
Staphylococcus aureus [22] = experiment: Antibacterial activity against Staphylococcus aureus ATCC 25923 infected in BALB/c mouse assessed as reduction in bacterial load in lung at 5 to 10 mg/kg, ip measured after 4 to 12 hrs (reference value: 5.6 x 10^6 CFU/g); format: functional; settings: dose 5-10 mg/kg, time 4-12 hrs
Cell membrane [23] = experiment: Induction of outer membrane permeabilization in Pseudomonas aeruginosa ATCC 27853 by NPN fluorescent dye based assay; format: subcellular; settings: DDE = dose-dependent effect
Staphylococcus aureus [24] = experiment: Antibacterial activity against Staphylococcus aureus ATCC 25923 infected BALB/c mouse assessed as reduction in pulmonary inflammatory cell infiltration at 5 to 10 mg/kg, ip measured after 24 hrs by hematoxylin and eosin staining based assay; format: functional, organism-based; settings: dose 5-10 mg/kg
Cell membrane [25] = experiment: Induction of cytoplasmic membrane depolarization in Staphylococcus aureus ATCC 25923 assessed as increase in fluorescence intensity at 1 to 4 times MIC measured after 1 min by DiSC3-5 dye based fluorescence method; format: subcellular; settings: DDE = dose-dependent effect
Staphylococcus aureus [26] = experiment: Antimicrobial activity against Staphylococcus aureus ATCC 25923 assessed as reduction of bacterial growth at 2 times MIC incubated for 18 hrs in presence of chymotrypsin by CLSI protocol based broth microdilution method; format: functional, organism-based
Staphylococcus aureus [27] = experiment: Synergistic antibacterial activity against Staphylococcus aureus ATCC 25923 assessed as fractional inhibitory concentration index incubated for 18 hrs in presence of kanamycin by checker board assay; format: functional
Escherichia coli [28] = experiment: Antimicrobial activity against Escherichia coli ATCC 25922 assessed as fold change in MIC incubated for 18 hrs in presence of 1 mM MgCl2 by CLSI protocol based broth microdilution method relative to control; format: functional
Escherichia coli [29] = experiment: Antimicrobial activity against Escherichia coli ATCC 25922 assessed as fold change in MIC incubated for 18 hrs in presence of 150 mM NaCl by CLSI protocol based broth microdilution method relative to control; format: functional
Erythrocyte = experiment: Hemolytic activity in mouse red blood cells assessed as release of hemoglobin incubated for 1 hr by microplate reader method; format: toxicity, cell-based
Staphylococcus aureus [30] = experiment: Antimicrobial activity against kanamycin-resistant Staphylococcus aureus ATCC 25923; format: functional
Staphylococcus aureus [31] = experiment: Antimicrobial activity against Staphylococcus aureus ATCC 25923 assessed as fold change in MIC incubated for 18 hrs in presence of 4.5 mM KCl by CLSI protocol based broth microdilution method relative to control; format: functional
Escherichia coli [32] = experiment: Antimicrobial activity against Escherichia coli ATCC 25922 assessed as morphological changes measured after 4 hrs by SEM analysis; format: functional, organism-based

| Substance | LD50 [1] | fractional inhibitory concentration index (FICI) (Escherichia coli [2]) | fractional inhibitory concentration index (FICI) (Staphylococcus aureus [3]) | fold change (FC) (Staphylococcus aureus [4]) | MIC (Klebsiella pneumoniae) | Activity (Escherichia coli [5]) | Activity (Staphylococcus aureus [6]) | Activity (Cell membrane [7]) | Activity (Escherichia coli [8]) | MIC (Escherichia coli [9]) | fold change (FC) (Escherichia coli [10]) | MIC (Pseudomonas aeruginosa) | MIC (Bacillus subtilis) | Activity (Escherichia coli [11]) | Retention_time [12] | half-life at 10000 µM [13] | Time (Staphylococcus aureus [14]) | Activity (Staphylococcus aureus [15]) | Activity (Cell membrane [16]) | Activity (Staphylococcus aureus [17]) | further results |
| --- | --- | --- | --- | --- | --- | --- | --- | --- | --- | --- | --- | --- | --- | --- | --- | --- | --- | --- | --- | --- | --- |
| H-KWKWKRRRFKWKWK-NH2 | 62.2 mg/kg | 1.25 | 0.5 | 2 | 16 µM | Active | Active | Active | Active | 4 µM | 1 | 4 µM | 4 µM | Active | 11.505 min | 2.68 h | 90 min | Active | Active | Active | fractional inhibitory concentration index (FICI) (Escherichia coli [18]): 0.625; Activity (Staphylococcus aureus [19]): Active; Activity (Lipopolysaccharide (LPS)): Active; MIC (Staphylococcus aureus [20]): 4 µM; CC50 at 1 h [21]: > 128 µM; Activity (Staphylococcus aureus [22]): 0 CFU/g; Activity (Cell membrane [23]): Dde; Activity (Staphylococcus aureus [24]): Active; Activity (Cell membrane [25]): Dde; Activity (Staphylococcus aureus [26]): Active; fractional inhibitory concentration index (FICI) (Staphylococcus aureus [27]): 0.5; fold change (FC) (Escherichia coli [28]): 1; fold change (FC) (Escherichia coli [29]): 1; HC10 (Erythrocyte): > 256 µM; MIC (Staphylococcus aureus [30]): 4 µM; fold change (FC) (Staphylococcus aureus [31]): 1; Activity (Escherichia coli [32]): Active |
| H-RIRIRRRRFRIRIR-NH2 | 77.1 mg/kg | 0.75 | 0.5625 | 2 | 8 µM | Active | Active | Active | Active | 4 µM | 1 | 4 µM | 2 µM | Active | 10.623 min | 7.7 h | 30 min | Active | Active | Active | fractional inhibitory concentration index (FICI) (Escherichia coli [18]): 1; Activity (Staphylococcus aureus [19]): Active; Activity (Lipopolysaccharide (LPS)): Active; MIC (Staphylococcus aureus [20]): 4 µM; CC50 at 1 h [21]: 65.2 µM; Activity (Staphylococcus aureus [22]): 0 CFU/g; Activity (Cell membrane [23]): Dde; Activity (Staphylococcus aureus [24]): Active; Activity (Cell membrane [25]): Dde; Activity (Staphylococcus aureus [26]): Active; fractional inhibitory concentration index (FICI) (Staphylococcus aureus [27]): 0.5625; fold change (FC) (Escherichia coli [28]): 1; fold change (FC) (Escherichia coli [29]): 4; HC10 (Erythrocyte): > 256 µM; MIC (Staphylococcus aureus [30]): 4 µM; fold change (FC) (Staphylococcus aureus [31]): 1; Activity (Escherichia coli [32]): Active |
